The values that follow come from paper PMC7093798 (Data in Brief, 2019).

The series deals with aminopyrine N-demethylase activity (CYP). Nature of the series: CYP inhibition: aminopyrine N-demethylase. The class given is in vitro ADME, rat. Particulars: RLM, 1–100 μM.

For the compound `O=C(/C=C/c1cccnc1)NCCCCC1CCN(C(=O)c2ccccc2)CC1` [FK866], the “AND inhibitory activity (in words)” value is “mild AND inhibitory activity only at 100 μM concentration”.
